Results from PubChem BioAssay AID1745844 (Carcinogenic Potency Database (CPDB), 2022).
Active and inactive are the calls of the source. How the calls were made is not given here.

Test system: rodent lifetime carcinogenesis bioassay, tumor incidence TD50
Assay: carcinogenic potency in animals, long-term in vivo studies, CPDB compilation (AID 1745844)
[1] = mouse, strain B6C3F1, males, by gavage, site: any site (literature study), lesion: several types, types named in the paper, dosed 103 weeks, study length 104 weeks
[2] = mouse, strain B6C3F1, males, by gavage, site: liver, lesion: hepatocellular adenoma + hepatocellular carcinoma + neoplastic nodule, dosed 103 weeks, study length 104 weeks
[3] = mouse, strain B6C3F1, males, by gavage, site: lung, lesion: alveolar/bronchiolar adenoma + alveolar/bronchiolar carcinoma, dosed 103 weeks, study length 104 weeks

O=P(O)(O)O
TD50 (mouse, strain B6C3F1, females, by gavage, site: any site (literature study), lesion: several types, types named in the paper, dosed 103 weeks, study length 105 weeks): 958 mg/kg/day | TD50 (mouse, strain B6C3F1, females, by gavage, site: liver, lesion: hepatocellular adenoma + hepatocellular carcinoma + neoplastic nodule, dosed 103 weeks, study length 105 weeks): 3710 mg/kg/day | TD50 (mouse, strain B6C3F1, females, by gavage, site: subcutaneous tissue, lesion: sarcoma, NOS, dosed 103 weeks, study length 105 weeks): 1490 mg/kg/day (inactive) | TD50 (mouse, strain B6C3F1, males, by gavage, site: adrenal gland, lesion: cortical adenoma, dosed 103 weeks, study length 104 weeks): 5840 mg/kg/day (inactive) | TD50 [1]: 11600 mg/kg/day | TD50 [2]: 2950 mg/kg/day | TD50 [3]: 19900 mg/kg/day | TD50 (mouse, strain B6C3F1, males, by gavage, site: multiple organs, lesion: malignant lymphoma, lymphocytic type, dosed 103 weeks, study length 104 weeks): 8420 mg/kg/day

Cn1cc[nH]c1=S
TD50 (rat, strain Harlan, females, in feed, site: thyroid gland, lesion: follicular adenocarcinoma, dosed 104 weeks, study length 104 weeks): 9.47 mg/kg/day | TD50 (rat, strain Harlan, females, in feed, site: thyroid gland, lesion: follicular-cell adenoma, dosed 104 weeks, study length 104 weeks): 1.57 mg/kg/day | TD50 (rat, strain Harlan, males, in feed, site: thyroid gland, lesion: follicular adenocarcinoma, dosed 104 weeks, study length 104 weeks): 37.6 mg/kg/day | TD50 (rat, strain Harlan, males, in feed, site: thyroid gland, lesion: follicular-cell adenoma, dosed 104 weeks, study length 104 weeks): 0.9 mg/kg/day

ClC1C2(Cl)C3C4C5OC5C5C4C1(Cl)C(Cl)(C53)C2(Cl)Cl (configuration not stated)
TD50 (mouse, strain B6C3F1, females, in feed, site: any site (literature study), lesion: several types, types named in the paper, dosed 80 weeks, study length 92 weeks): 0.743 mg/kg/day (inactive) | TD50 (mouse, strain B6C3F1, females, in feed, site: liver, lesion: hepatocellular adenoma + hepatocellular carcinoma + neoplastic nodule, dosed 80 weeks, study length 92 weeks): 2.53 mg/kg/day | TD50 (mouse, strain B6C3F1, females, in feed, site: lung, lesion: alveolar/bronchiolar adenoma + alveolar/bronchiolar carcinoma, dosed 80 weeks, study length 92 weeks): 6.78 mg/kg/day | TD50 (mouse, strain B6C3F1, males, in feed, site: any site (literature study), lesion: several types, types named in the paper, dosed 80 weeks, study length 93 weeks): 0.494 mg/kg/day (inactive) | TD50 (mouse, strain B6C3F1, males, in feed, site: liver, lesion: hepatocellular adenoma + hepatocellular carcinoma + neoplastic nodule, dosed 80 weeks, study length 93 weeks): 1.96 mg/kg/day | TD50 (mouse, strain B6C3F1, males, in feed, site: lung, lesion: alveolar/bronchiolar adenoma + alveolar/bronchiolar carcinoma, dosed 80 weeks, study length 93 weeks): 0.465 mg/kg/day | TD50 (rat, strain Osborne-Mendel, females, in feed, site: any site (literature study), lesion: several types, types named in the paper, dosed 69 weeks, study length 111 weeks): 0.327 mg/kg/day | TD50 (rat, strain Osborne-Mendel, females, in feed, site: mammary gland, lesion: adenoma + fibroadenoma, dosed 69 weeks, study length 111 weeks): 0.612 mg/kg/day (inactive) | TD50 (rat, strain Osborne-Mendel, males, in feed, site: all sites, lesion: hemangioma, dosed 80 weeks, study length 109 weeks): 2.89 mg/kg/day (inactive) | carcinogen call (rat, strain Osborne-Mendel, males, in feed, site: any site (literature study), lesion: several types, types named in the paper, dosed 80 weeks, study length 111 weeks): negative (inactive) | TD50 (rat, strain Osborne-Mendel, males, in feed, site: liver, lesion: hepatocellular adenoma + hepatocellular carcinoma + neoplastic nodule, dosed 80 weeks, study length 111 weeks): 7.72 mg/kg/day

C=CC1CC=CCC1 (configuration not stated)
TD50 (mouse, strain B6C3F1, females, by gavage, site: adrenal capsule, lesion: adenoma, NOS, dosed 103 weeks, study length 104 weeks): 1050 mg/kg/day | TD50 (mouse, strain B6C3F1, females, by gavage, site: any site (literature study), lesion: several types, types named in the paper, dosed 103 weeks, study length 104 weeks): 149 mg/kg/day | TD50 (mouse, strain B6C3F1, females, by gavage, site: liver, lesion: hepatocellular adenoma + hepatocellular carcinoma + neoplastic nodule, dosed 103 weeks, study length 104 weeks): 1480 mg/kg/day | TD50 (mouse, strain B6C3F1, females, by gavage, site: lung, lesion: alveolar/bronchiolar adenoma + alveolar/bronchiolar carcinoma, dosed 103 weeks, study length 104 weeks): 19000 mg/kg/day | TD50 (mouse, strain B6C3F1, females, by gavage, site: mesenteric lymph node + multiple organs + small intestine, lesion: malignant lymphoma, lymphocytic type, dosed 103 weeks, study length 104 weeks): 839 mg/kg/day | TD50 (mouse, strain B6C3F1, females, by gavage, site: ovary, lesion: granulosa-cell carcinoma + granulosa-cell tumor + mixed tumor, benign, dosed 103 weeks, study length 104 weeks): 94.4 mg/kg/day | TD50 (mouse, strain B6C3F1, females, by gavage, site: ovary, lesion: granulosa-cell carcinoma + granulosa-cell tumor, dosed 103 weeks, study length 104 weeks): 309 mg/kg/day | TD50 (mouse, strain B6C3F1, females, by gavage, site: ovary, lesion: granulosa-cell tumor, dosed 103 weeks, study length 104 weeks): 361 mg/kg/day | TD50 (mouse, strain B6C3F1, females, by gavage, site: ovary, lesion: mixed tumor, benign, dosed 103 weeks, study length 104 weeks): 106 mg/kg/day | TD50 [1]: 307 mg/kg/day | TD50 [2]: 1270 mg/kg/day | TD50 [3]: 490 mg/kg/day | TD50 (mouse, strain B6C3F1, males, by gavage, site: lung, lesion: alveolar/bronchiolar adenoma, dosed 103 weeks, study length 104 weeks): 926 mg/kg/day | TD50 (mouse, strain B6C3F1, males, by gavage, site: mesenteric lymph node + multiple organs + spleen, lesion: malignant lymphoma, histiocytic type + malignant lymphoma, mixed type + malignant lymphoma, lymphocytic type, dosed 103 weeks, study length 104 weeks): 623 mg/kg/day | TD50 (rat, strain Fischer 344, females, by gavage, site: any site (literature study), lesion: several types, types named in the paper, dosed 103 weeks, study length 104 weeks): 305 mg/kg/day | TD50 (rat, strain Fischer 344, females, by gavage, site: clitoral gland, lesion: adenoma, NOS + squamous-cell carcinoma, dosed 103 weeks, study length 104 weeks): 580 mg/kg/day | TD50 (rat, strain Fischer 344, females, by gavage, site: liver, lesion: hepatocellular adenoma + hepatocellular carcinoma + neoplastic nodule, dosed 103 weeks, study length 104 weeks): 3.85e+06 mg/kg/day | TD50 (rat, strain Fischer 344, males, by gavage, site: adrenal gland, lesion: pheochromocytoma + pheochromocytoma, malignant, dosed 103 weeks, study length 104 weeks): 159 mg/kg/day | TD50 (rat, strain Fischer 344, males, by gavage, site: any site (literature study), lesion: several types, types named in the paper, dosed 103 weeks, study length 104 weeks): 119 mg/kg/day | TD50 (rat, strain Fischer 344, males, by gavage, site: liver, lesion: hepatocellular adenoma + hepatocellular carcinoma + neoplastic nodule, dosed 103 weeks, study length 104 weeks): 132000 mg/kg/day | TD50 (rat, strain Fischer 344, males, by gavage, site: skin, lesion: squamous-cell carcinoma + squamous-cell papilloma, dosed 103 weeks, study length 104 weeks): 769 mg/kg/day | TD50 (rat, strain Fischer 344, males, by gavage, site: skin, lesion: squamous-cell papilloma, dosed 103 weeks, study length 104 weeks): 935 mg/kg/day | TD50 (rat, strain Fischer 344, males, by gavage, site: testis, lesion: interstitial-cell tumor, dosed 103 weeks, study length 104 weeks): 62.3 mg/kg/day

O=NN1CCSCC1
TD50 (rat, strain MRC, females, in drinking water, site: any site (literature study), lesion: several types, types named in the paper, dosed 38 weeks, study length 105 weeks): 7.38 mg/kg/day | TD50 (rat, strain MRC, females, in drinking water, site: esophagus, lesion: several types, types named in the paper, dosed 38 weeks, study length 105 weeks): 7.69 mg/kg/day | TD50 (rat, strain MRC, females, in drinking water, site: tongue, lesion: squamous-cell carcinoma, dosed 38 weeks, study length 105 weeks): 22 mg/kg/day | TD50 (rat, strain MRC, males, in drinking water, site: any site (literature study), lesion: several types, types named in the paper, dosed 38 weeks, study length 95 weeks): 2.29 mg/kg/day | TD50 (rat, strain MRC, males, in drinking water, site: esophagus, lesion: several types, types named in the paper, dosed 38 weeks, study length 95 weeks): 4.15 mg/kg/day

CC(=O)Nc1ccc(S(=O)(=O)c2ccc(NC(C)=O)cc2)cc1
TD50 (rat, strain Buffalo, females, in feed, site: mammary gland, lesion: adenocarcinoma, dosed 43 weeks, study length 92 weeks): 55.6 mg/kg/day
